Assay results as given in PubChem BioAssay AID743023 (Sanford-Burnham Center for Chemical Genomics, 2013).
Calls of active or inactive are those of the source.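 The calls were made as follows: active = mean IC50 of 15000 nM or lower against heat shock reporter, a sign of off-target artifact; inactive = the rest.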

What follows are molecules tested on C. elegans VP596 hsp-16.2 GFP/RFP heat-shock reporter fluorescence (assay: heat-shock hsp-16.2 GFP reporter inhibition, SAR follow-up, counter-screen for SKN-1 inhibitor project, whole organism, C. elegans VP596, GFP/RFP ratio, round 3 (AID 743023)).
`c1ccc(-c2csc(-c3ccccn3)n2)cc1` was tested, and the IC50 was > 64 µM (inactive).
In the case of `c1cc(-c2nc(-c3nccs3)cs2)ccn1`, the IC50 is reported as > 64 µM (inactive).
For `c1ccc(-c2csc(C3CCNCC3)n2)cc1`, the IC50 was > 64 µM (inactive).
`COc1ccc(-c2csc(-c3ccncc3)n2)cc1` was tested, and the IC50 was > 64 µM (inactive).
For `Clc1ccc(-c2csc(C3CCNCC3)n2)cc1`, the IC50 was > 64 µM (inactive).
With `Fc1ccc(-c2csc(C3CCNCC3)n2)cc1` the IC50 was > 64 µM (inactive).
For `Cc1ccc(-c2csc(-c3ccccn3)n2)cc1`, the IC50 was > 64 µM (inactive).
In the case of `Cc1ccc(-c2csc(-c3cccnc3)n2)cc1`, the IC50 is reported as > 64 µM (inactive).
`Clc1ccc(-c2csc(-c3ccccn3)n2)cc1` was tested, and the IC50 was > 64 µM (inactive).
In the case of `Cc1sc(-c2ccncc2)nc1-c1ccc(F)cc1`, the IC50 is reported as > 64 µM (inactive).
For `c1ccc(-c2nc(-c3cccnc3)cs2)cc1`, the IC50 was > 64 µM (inactive).
With `Clc1ccc(-c2csc(-c3ccncc3)n2)cc1Cl` the IC50 was > 64 µM (inactive).
`COc1ccc(-c2nc(-c3ccncc3)sc2C)cc1` was tested, and the IC50 was > 64 µM (inactive).
With `Cc1ccc(-c2csc(-c3ccccc3)n2)cc1` the IC50 was > 64 µM (inactive).
`Clc1ccc(-c2csc(-c3ccccc3)n2)cc1` was tested, and the IC50 was > 64 µM (inactive).
For `COc1ccc(-c2csc(C3CCNCC3)n2)cc1`, the IC50 was > 64 µM (inactive).
In the case of `Clc1ccc(-c2csc(-c3ccncc3)n2)cc1`, the IC50 is reported as > 64 µM (inactive).
With `c1ccc(-c2csc(-c3cccnc3)n2)cc1` the IC50 was > 64 µM (inactive).
For `Clc1cccc(-c2csc(-c3ccncc3)n2)c1`, the IC50 was > 64 µM (inactive).
`COc1cccc(-c2csc(-c3ccncc3)n2)c1` was tested, and the IC50 was > 64 µM (inactive).
In the case of `Cc1ccccc1-c1csc(-c2ccncc2)n1`, the IC50 is reported as > 64 µM (inactive).
With `Clc1ccc(-c2csc(-c3cccnc3)n2)cc1` the IC50 was > 64 µM (inactive).
`Fc1ccc(-c2csc(-c3ccccc3)n2)cc1` was tested, and the IC50 was > 64 µM (inactive).
`CC(C)(C)c1csc(-c2ccncc2)n1` was tested, and the IC50 was > 64 µM (inactive).
For `Cc1ccc(-c2csc(-c3ccncc3)n2)cc1`, the IC50 was > 64 µM (inactive).
`Cc1ccc(-c2nc(-c3ccncc3)sc2C)cc1` was tested, and the IC50 was > 64 µM (inactive).
`N#Cc1ccc(-c2csc(-c3ccncc3)n2)cc1` was tested, and the IC50 was > 64 µM (inactive).
For `FC(F)(F)c1ccc(-c2csc(-c3ccncc3)n2)cc1`, the IC50 was > 64 µM (inactive).
For `Cc1cccc(-c2csc(-c3ccncc3)n2)c1`, the IC50 was > 64 µM (inactive).
In the case of `Cc1csc(-c2ccncc2)n1`, the IC50 is reported as > 64 µM (inactive).
For `c1cc(-c2nc(C3CC3)cs2)ccn1`, the IC50 was > 64 µM (inactive).
For `Cc1ccc(-c2csc(C3CCNCC3)n2)cc1`, the IC50 was > 64 µM (inactive).
For `Clc1ccccc1-c1csc(-c2ccncc2)n1`, the IC50 was > 64 µM (inactive).
`COc1ccc(-c2csc(-c3ccccn3)n2)cc1` was tested, and the IC50 was > 64 µM (inactive).
With `Fc1ccc(-c2csc(-c3ccncc3)n2)cc1` the IC50 was > 64 µM (inactive).
`COc1ccccc1-c1csc(-c2ccncc2)n1` was tested, and the IC50 was > 64 µM (inactive).
`Fc1ccc(-c2csc(-c3ccccn3)n2)cc1` was tested, and the IC50 was > 64 µM (inactive).
For `COC(=O)c1ccc(-c2csc(-c3ccncc3)n2)cc1`, the IC50 was > 64 µM (inactive).
`c1ccc(-c2csc(-c3ccncc3)n2)cc1` was tested, and the IC50 was > 64 µM (inactive).
`Clc1ccc(-c2csc(-c3ccncc3)n2)c(Cl)c1` was tested, and the IC50 was > 64 µM (inactive).
With `COc1ccc(-c2csc(-c3cccnc3)n2)cc1` the IC50 was > 64 µM (inactive).
With `Fc1ccc(-c2csc(-c3cccnc3)n2)cc1` the IC50 was > 64 µM (inactive).
With `CCCc1cc(-c2nc(-c3ccc(C)cc3)cs2)ccn1` the IC50 was > 64 µM (inactive).
With `CCCc1cc(-c2nc(-c3ccc(NS(C)(=O)=O)cc3)cs2)ccn1` the IC50 was > 64 µM (inactive).
`Cc1sc(-c2ccncc2)nc1-c1ccccc1` was tested, and the IC50 was > 64 µM (inactive).
For `COc1ccc(-c2csc(-c3ccccc3)n2)cc1`, the IC50 was > 64 µM (inactive).
In the case of `Cc1sc(-c2ccncc2)nc1-c1ccc(Cl)cc1`, the IC50 is reported as > 64 µM (inactive).
In the case of `Cc1sc(C2CCNCC2)nc1-c1ccccc1`, the IC50 is reported as > 64 µM (inactive).
